Assay results as given in US20250221998A1, “DISCOVERY OF COVALENT EGFR INHIBITOR THROUGH CYSTEINE 775” (Dana-Farber Cancer Institute, Inc., priority 2022, published 2025).

Columns and labels:
[1] = target: EGFR mutant L858R Ba/F3 cells (Homo sapiens, UniProt P00533, L858R, cells depend on it); experiment: Ba/F3 cell proliferation (Cell Titer Glo), EGFR L858R; assay type: cell-based, murine; settings: 72 hours exposure, read-out: L858R BaF3 (μM), inhibitory activity against EGFR mutants
Source text: (§1) The EGFR mutant L858R Ba/F3 cells have been previously described (Zhou, W., et al. Nature 462, 2009, 1070-1074). The EGFR C797S and C775S mutations were introduced via site directed mutagenesis using the Quick Change Site-Directed Mutagenesis kit into a vector containing EGFR L858R mutation (Stratagene; La Jolla, CA) according to the manufacturer's instructions. All constructs were confirmed by DNA sequencing. The constructs were then shuttled into the retroviral vector JP1540 by either using the Cre-recombination system (Agilent Technologies, Santa Clara, CA) or the In-fusion HD Cloning kit (Takara Bio USA, Inc.; Mountain view, CA). Ba/F3 cells were then infected with retrovirus per standard protocols, as described previously (Zhou, et al, Nature 2009). Stable clones were obtained by selection in puromycin (2 ug/ml). All BaF/3 mutant cells were maintained in RPMI 1640 (Cellgro; Mediatech Inc., Herndon, CA) supplemented with 10% FBS, 100 units/mL penicillin, 100 units/mL streptomycin.
(§2) Growth and inhibition of growth was assessed by the Cell Titer Glo assay (Promega, Madison, WI) and was performed according to the manufacturer's instructions. The Cell Titer Glo assay is a luminescence-based method used to determine the number of viable cells based on quantitation of the ATP present, which is directly proportional to the amount of metabolically active cells present. Ba/F3 cells of different EGFR genotypes were exposed to compounds for 72 hours and the number of cells used per experiment was determined empirically as has been previously established (Zhou, et al., Nature 2009). All experimental points were set up in triplicates in 384-well plates. […] The curves were fitted using a non-linear regression model with a sigmoidal dose response.
(§3) For inhibitory activity against EGFR mutants, the following designations are used: ≤0·25 μM=A, 0·25 μM˜0.5 μM=B, 0.5 μM˜2.5 μM=C, ≥2.5 μM=D.

[2] = target: EGFR L858R/C797S Ba/F3 cells (Homo sapiens, UniProt P00533, C797S/L858R, cells depend on it); experiment: Ba/F3 cell proliferation (Cell Titer Glo), EGFR L858R/C797S; assay type: cell-based, murine; settings: 72 hours exposure, read-out: L858R/C797S (μM), inhibitory activity against EGFR mutants
Source text: as §1, §2, §3

EGFR mutant L858R Ba/F3 cells, sequence (P00533 whole entry L858R, the tested form may be a part): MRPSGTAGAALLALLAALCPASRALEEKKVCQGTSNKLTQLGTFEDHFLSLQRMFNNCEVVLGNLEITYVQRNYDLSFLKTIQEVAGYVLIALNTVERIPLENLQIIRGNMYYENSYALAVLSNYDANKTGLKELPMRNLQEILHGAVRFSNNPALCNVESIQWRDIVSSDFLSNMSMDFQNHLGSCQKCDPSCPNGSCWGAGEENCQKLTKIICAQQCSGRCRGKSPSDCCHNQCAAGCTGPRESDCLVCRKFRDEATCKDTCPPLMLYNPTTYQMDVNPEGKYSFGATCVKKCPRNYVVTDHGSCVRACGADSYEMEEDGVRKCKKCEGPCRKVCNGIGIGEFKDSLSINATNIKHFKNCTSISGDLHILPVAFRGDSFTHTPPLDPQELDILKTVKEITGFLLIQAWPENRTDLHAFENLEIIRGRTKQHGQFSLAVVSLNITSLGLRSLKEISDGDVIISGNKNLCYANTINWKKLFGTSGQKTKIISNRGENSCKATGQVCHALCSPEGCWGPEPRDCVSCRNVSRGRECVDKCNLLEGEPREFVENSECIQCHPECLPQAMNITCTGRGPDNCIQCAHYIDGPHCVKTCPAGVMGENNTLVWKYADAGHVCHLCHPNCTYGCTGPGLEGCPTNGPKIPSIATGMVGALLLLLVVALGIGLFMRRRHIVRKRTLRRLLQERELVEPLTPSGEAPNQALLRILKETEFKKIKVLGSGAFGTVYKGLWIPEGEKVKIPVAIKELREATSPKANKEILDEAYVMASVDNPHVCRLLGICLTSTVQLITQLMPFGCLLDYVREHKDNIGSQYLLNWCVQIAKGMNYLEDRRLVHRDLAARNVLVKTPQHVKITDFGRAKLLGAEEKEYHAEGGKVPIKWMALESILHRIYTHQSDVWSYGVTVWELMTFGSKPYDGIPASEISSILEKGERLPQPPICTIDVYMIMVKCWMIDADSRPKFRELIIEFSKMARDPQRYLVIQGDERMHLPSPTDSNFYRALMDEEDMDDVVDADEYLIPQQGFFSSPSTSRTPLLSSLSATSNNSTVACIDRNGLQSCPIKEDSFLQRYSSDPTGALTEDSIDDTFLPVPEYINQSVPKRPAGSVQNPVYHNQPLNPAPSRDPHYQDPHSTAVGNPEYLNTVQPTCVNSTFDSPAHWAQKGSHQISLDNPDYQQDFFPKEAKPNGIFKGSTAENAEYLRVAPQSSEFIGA
EGFR L858R/C797S Ba/F3 cells, sequence (P00533 whole entry C797S/L858R): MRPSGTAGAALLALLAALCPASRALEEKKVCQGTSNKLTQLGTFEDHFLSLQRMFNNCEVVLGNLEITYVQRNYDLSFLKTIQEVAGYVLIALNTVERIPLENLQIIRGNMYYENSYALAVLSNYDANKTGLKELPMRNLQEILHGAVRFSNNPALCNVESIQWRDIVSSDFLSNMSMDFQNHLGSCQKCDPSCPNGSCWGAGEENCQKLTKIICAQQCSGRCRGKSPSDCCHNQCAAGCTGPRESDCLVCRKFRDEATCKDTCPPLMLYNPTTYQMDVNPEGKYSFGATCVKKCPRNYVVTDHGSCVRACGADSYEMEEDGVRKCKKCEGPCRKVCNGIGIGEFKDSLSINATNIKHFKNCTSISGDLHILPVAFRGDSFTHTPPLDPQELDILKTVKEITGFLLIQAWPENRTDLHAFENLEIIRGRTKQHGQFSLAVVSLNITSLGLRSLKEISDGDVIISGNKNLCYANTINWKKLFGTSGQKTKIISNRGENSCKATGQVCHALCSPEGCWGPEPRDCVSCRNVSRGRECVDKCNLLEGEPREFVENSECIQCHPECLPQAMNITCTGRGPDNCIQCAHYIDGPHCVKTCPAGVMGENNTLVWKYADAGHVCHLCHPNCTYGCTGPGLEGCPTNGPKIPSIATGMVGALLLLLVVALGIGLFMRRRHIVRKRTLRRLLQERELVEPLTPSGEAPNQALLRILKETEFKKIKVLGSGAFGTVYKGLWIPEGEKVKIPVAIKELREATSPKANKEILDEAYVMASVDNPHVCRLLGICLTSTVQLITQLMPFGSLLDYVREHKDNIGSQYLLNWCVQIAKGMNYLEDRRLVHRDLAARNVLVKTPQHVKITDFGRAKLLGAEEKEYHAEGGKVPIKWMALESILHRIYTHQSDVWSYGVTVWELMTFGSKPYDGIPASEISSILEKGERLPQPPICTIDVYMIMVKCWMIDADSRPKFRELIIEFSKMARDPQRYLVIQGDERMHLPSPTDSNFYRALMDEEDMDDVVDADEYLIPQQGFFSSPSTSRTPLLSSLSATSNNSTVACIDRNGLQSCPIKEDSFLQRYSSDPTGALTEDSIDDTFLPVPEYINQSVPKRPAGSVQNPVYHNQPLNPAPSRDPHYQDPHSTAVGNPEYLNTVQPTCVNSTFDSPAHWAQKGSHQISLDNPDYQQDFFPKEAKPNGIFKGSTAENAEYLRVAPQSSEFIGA

Row | GI50 [1] [µM] | GI50 [2] [µM] | SMILES
1 | ≤ 0.25 | 0.25 to 0.5 | C=CC(=O)N1CCN(c2cc3cnc(NC4CC4)nc3n(CC3CCOC3)c2=O)c2cccc(C)c21 (centres unmarked) [Compound 106, 2-(cyclopropylamino)-6-(5-methyl-4-prop-2-enoyl-2,3-dihydroquinoxalin-1-yl)-8-(tetrahydrofuran-3-ylmethyl)pyrido[2,3-d]pyrimidin-7-one]
2 | ≤ 0.25 | ≤ 0.25 | C=CC(=O)N1CCN(c2cc3cnc(Nc4ccc(OCCN(C)C)cc4)nc3n(C3CCOC3)c2=O)c2cccc(C)c21 (centres unmarked) [Compound 072, 2-[4-[2-(dimethylamino)ethoxy]anilino]-6-(5-methyl-4-prop-2-enoyl-2,3-dihydroquinoxalin-1-yl)-8-tetrahydrofuran-3-yl-pyrido[2,3-d]pyrimidin-7-one]
3 | ≤ 0.25 | ≤ 0.25 | C=CC(=O)N1CCN(c2cc3cnc(N)nc3n([C@H]3CC[C@](C)(O)CC3)c2=O)c2cccc(C)c21 [Compound 087, 6-(4-acryloyl-5-methyl-3,4-dihydroquinoxalin-1 (2H)-yl)-2-amino-8-((1r,4r)-4-hydroxy-4-methylcyclohexyl)pyrido[2,3-d]pyrimidin-7 (8H)-one]
4 | ≤ 0.25 | ≤ 0.25 | C=CC(=O)N1CCN(c2cc3cnc(Nc4ccc(OCCN(C)C)cc4)nc3n(C)c2=O)c2cccc(OC)c21 [Compound 074]
5 | ≤ 0.25 | ≤ 0.25 | C=CC(=O)N1CCN(c2cc3cnc(N)nc3n(-c3ccc(N4CCN(C)CC4)cc3)c2=O)c2cccc(C)c21 [Compound 092, 2-amino-8-[4-(4-methylpiperazin-1-yl)phenyl]-6-(5-methyl-4-prop-2-enoyl-2,3-dihydroquinoxalin-1-yl)pyrido[2,3-d]pyrimidin-7-one]
6 | ≤ 0.25 | ≤ 0.25 | C=CC(=O)N1CCN(c2cc3cnc(NC4CC4)nc3n(C3CCOCC3)c2=O)c2cccc(C)c21 [Compound 097, 2-(cyclopropylamino)-6-(5-methyl-4-prop-2-enoyl-2,3-dihydroquinoxalin-1-yl)-8-tetrahydropyran-4-yl-pyrido[2,3-d]pyrimidin-7-one]
7 | ≤ 0.25 | ≤ 0.25 | C=CC(=O)N1CCN(c2cc3cnc(Nc4ccc(OCCN(C)C)cc4)nc3n(C3CC(OC)C3)c2=O)c2cccc(C)c21 (centres unmarked) [Compound 071, 2-[4-[2-(dimethylamino)ethoxy]anilino]-8-(3-methoxycyclobutyl)-6-(5-methyl-4-prop-2-enoyl-2,3-dihydroquinoxalin-1-yl)pyrido[2,3-d]pyrimidin-7-one]
8 | ≤ 0.25 | ≤ 0.25 | C=CC(=O)N1CCN(c2cc3cnc(Nc4cc5n(c4)CCN(C)C5=O)nc3n(C)c2=O)c2cccc(C)c21 [Compound 073, 8-methyl-2-[(2-methyl-1-oxo-3,4-dihydropyrrolo[1,2-a]pyrazin-7-yl)amino]-6-(5-methyl-4-prop-2-enoyl-2,3-dihydroquinoxalin-1-yl)pyrido[2,3-d]pyrimidin-7-one]
9 | ≤ 0.25 | ≤ 0.25 | C=CC(=O)N1CCN(c2cc3cnc(Nc4ccc(OCCN(C)C)c(F)c4)nc3n(C)c2=O)c2cccc(C)c21 [Compound 075]
10 | ≤ 0.25 | ≤ 0.25 | C=CC(=O)N1CCN(c2cc3cnc(Nc4ccc(OCCN(C)C)cc4)nc3n(C)c2=O)c2cc(O)ccc21 [Compound 078, 2-[4-[2-(dimethylamino)ethoxy]anilino]-6-(7-hydroxy-4-prop-2-enoyl-2,3-dihydroquinoxalin-1-yl)-8-methyl-pyrido[2,3-d]pyrimidin-7-one]
11 | ≤ 0.25 | ≤ 0.25 | C=CC(=O)N1CCN(c2cc3cnc(Nc4ccc(OC5CN(C)C5)cc4)nc3n(C)c2=O)c2cccc(C)c21 [Compound 076]
12 | ≤ 0.25 | ≤ 0.25 | C=CC(=O)N1CCN(c2cc3cnc(NC4CC4)nc3n(-c3ccc(N(C)CCN(C)C)cc3)c2=O)c2cccc(C)c21 [Compound 095, 2-(cyclopropylamino)-8-[4-[2-(dimethylamino)ethyl-methyl-amino]phenyl]-6-(5-methyl-4-prop-2-enoyl-2,3-dihydroquinoxalin-1-yl)pyrido[2,3-d]pyrimidin-7-one]

Continued, molecule first:

Row | SMILES | GI50 [1] [µM] | GI50 [2] [µM]
13 | C=CC(=O)N1CCN(c2cc3cnc(Nc4ccc(OCCN(C)C)cc4)nc3n(C)c2=O)c2cccc(O)c21 [Compound 066, 2-[4-[2-(dimethylamino)ethoxy]anilino]-6-(5-hydroxy-4-prop-2-enoyl-2,3-dihydroquinoxalin-1-yl)-8-methyl-pyrido[2,3-d]pyrimidin-7-one] | ≤ 0.25 | ≤ 0.25
14 | C=CC(=O)N1CCN(c2cc3cnc(Nc4cnn(CCO)c4)nc3n(C)c2=O)c2cccc(C)c21 [Compound 038] | ≤ 0.25 | ≤ 0.25
15 | C=CC(=O)N1CCN(c2cc3cnc(Nc4ccc(N5CCN(C)CC5)cc4OC)nc3n(C)c2=O)c2cccc(C)c21 [Compound 029] | ≤ 0.25 | ≤ 0.25
16 | C=CC(=O)N1CCN(c2cc3cnc(Nc4ccc(N5CCN(C)CC5)cc4)nc3n(C)c2=O)C(=O)C1 [Compound 025, 8-methyl-2-[4-(4-methylpiperazin-1-yl)anilino]-6-(2-oxo-4-prop-2-enoyl-piperazin-1-yl)pyrido[2,3-d]pyrimidin-7-one] | ≥ 2.5 | ≥ 2.5
17 | C=CC(=O)N1CC2CCN(c3cc4cnc(Nc5ccc(N6CCN(C)CC6)cc5)nc4n(C)c3=O)C[C@@H]2C1 (some centres unmarked) [Compound 023, 8-methyl-2-[4-(4-methylpiperazin-1-yl)anilino]-6-(2-prop-2-enoyl-3,3a,4,6,7,7a-hexahydro-1H-pyrrolo[3,4-c]pyridin-5-yl)pyrido[2,3-d]pyrimidin-7-one] | ≥ 2.5 | ≥ 2.5
18 | C=CC(=O)N1CCN(c2cc3cnc(Nc4ccc(OC5CN(S(C)(=O)=O)C5)cc4)nc3n(C)c2=O)c2cccc(C)c21 [Compound 049] | ≤ 0.25 | ≤ 0.25
19 | C=CC(=O)N1CCN(c2cc3cnc(Nc4cnn(CCN(C)C)c4)nc3n(C)c2=O)c2cccc(C)c21 [Compound 037, 2-[[1-[2-(dimethylamino)ethyl]pyrazol-4-yl]amino]-8-methyl-6-(5-methyl-4-prop-2-enoyl-2,3-dihydroquinoxalin-1-yl)pyrido[2,3-d]pyrimidin-7-one] | ≤ 0.25 | ≤ 0.25
20 | C=CC(=O)N1CCN(c2cc3cnc(Nc4ccc(OCCN(C)C)cc4)nc3n([C@H]3C[C@@](C)(O)C3)c2=O)c2cccc(C)c21 [Compound 056, 2-[4-[2-(dimethylamino)ethoxy]anilino]-8-((1s,3s)-3-hydroxy-3-methyl-cyclobutyl)-6-(5-methyl-4-prop-2-enoyl-2,3-dihydroquinoxalin-1-yl)pyrido[2,3-d]pyrimidin-7-one] | ≤ 0.25 | ≤ 0.25
21 | C=CC(=O)N1CCN(c2cc3cnc(Nc4ccc(CC5CN(S(C)(=O)=O)C5)cc4)nc3n(C)c2=O)c2cccc(C)c21 [Compound 048, 8-methyl-6-(5-methyl-4-prop-2-enoyl-2,3-dihydroquinoxalin-1-yl)-2-[4-[(1-methylsulfonylazetidin-3-yl)methyl]anilino]pyrido[2,3-d]pyrimidin-7-one] | ≤ 0.25 | ≤ 0.25
22 | C=C(F)C(=O)NC1CCCN(c2cc3cnc(Nc4cnn(CCO)c4)nc3n(C)c2=O)C1 (centres unmarked) [Compound 016, 2-fluoro-N-[1-[2-[[1-(2-hydroxyethyl)pyrazol-4-yl]amino]-8-methyl-7-oxo-pyrido[2,3-d]pyrimidin-6-yl]-3-piperidyl]prop-2-enamide] | ≥ 2.5 | ≥ 2.5
23 | C=CC(=O)Nc1c(O)cccc1Oc1cc2cnc(Nc3ccc(N4CCN(C)CC4)cc3)nc2n(C)c1=O [Compound 064, N-[2-hydroxy-6-[8-methyl-2-[4-(4-methylpiperazin-1-yl)anilino]-7-oxo-pyrido[2,3-d]pyrimidin-6-yl]oxy-phenyl]prop-2-enamide] | ≤ 0.25 | 0.25 to 0.5
24 | C=CC(=O)N1CCN(c2cc3cnc(Nc4ccc(N5CCN(C)CC5)cn4)nc3n(C)c2=O)c2cccc(C)c21 [Compound 030] | ≤ 0.25 | ≤ 0.25
25 | C=CC(=O)N1CCN(c2cc3cnc(Nc4ccc(N5CCN(C)CC5)nc4)nc3n(C)c2=O)c2cccc(C)c21 [Compound 031] | ≤ 0.25 | ≤ 0.25
26 | C=CC(=O)N1CCN(c2cc3cnc(Nc4cnn(CCS(C)(=O)=O)c4)nc3n(C)c2=O)c2cccc(C)c21 [Compound 041] | ≤ 0.25 | 0.25 to 0.5
27 | C=CC(=O)N1CCN(c2cc3cnc(Nc4ccc5c(c4)CN(S(C)(=O)=O)CC5)nc3n(C)c2=O)c2cccc(C)c21 [Compound 035] | ≤ 0.25 | ≤ 0.25
28 | C=CC(=O)N1CCN(c2cc3cnc(Nc4ccc(N5CCN(C)CC5)cc4)nc3n(C)c2=O)c2cccc(OC)c21 [Compound 021] | ≤ 0.25 | ≤ 0.25
